Structures are written as SMILES.

In experiment [1] the target is T1, eRF1 (Saccharomyces cerevisiae, UniProt P12385).
T1 construct: gene SUP45; Full-length S. cerevisiae eRF1
Nature of the experiment: competition with [3H]-AzAt photoaffinity labeling of isolated eRF1 ([…] ataluren vs […] AzAt). Format: binding.

In experiment [2] the target is T1, eRF1. Nature of the experiment: photoaffinity labeling with [3H]-AzAt, saturation curve on isolated eRF1 (SDS-PAGE gel slice radioactivity). Format: binding. The source says:
photoaffinity labeling with [3H]-AzAt, saturation curve on isolated eRF1 (SDS-PAGE gel slice radioactivity) on eRF1 | Photoincorporation into isolated eRF1 as a function of AzAt concentration results in a simple hyperbolic saturation curve

T1 sequence (P12385 whole entry): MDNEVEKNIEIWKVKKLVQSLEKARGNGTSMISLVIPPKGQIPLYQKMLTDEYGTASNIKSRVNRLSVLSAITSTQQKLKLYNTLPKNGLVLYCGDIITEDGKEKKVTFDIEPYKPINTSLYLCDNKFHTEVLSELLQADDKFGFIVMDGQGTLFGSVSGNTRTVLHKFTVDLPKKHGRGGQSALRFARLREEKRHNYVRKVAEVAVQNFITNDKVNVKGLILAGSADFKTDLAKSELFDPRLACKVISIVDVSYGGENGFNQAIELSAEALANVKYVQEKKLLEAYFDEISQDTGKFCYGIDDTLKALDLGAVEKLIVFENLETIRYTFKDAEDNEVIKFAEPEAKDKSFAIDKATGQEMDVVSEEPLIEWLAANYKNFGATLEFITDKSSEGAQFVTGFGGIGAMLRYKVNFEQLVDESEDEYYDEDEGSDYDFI

On to `O=C(O)c1cccc(-c2noc(-c3ccccc3F)n2)c1` [ataluren], for which the “competition with [3H]-AzAt photoaffinity labeling of isolated eRF1 (1000 μM atal)” value on eRF1 [1] is “both ataluren and GJ072, an ataluren-like TRID, substantially inhibit AzAt photoincorporation into isolated eRF1”.
Take `[N-]=[N+]=Nc1ccc(-c2nc(-c3cccc(C(=O)O)c3)no2)cc1` [AzAt, 3-(5-(4-azidophenyl)-1,2,4-oxadiazol-3-yl) benzoic acid]: the EC50 (usually the concentration needed to bring the measured effect to its halfway point) on eRF1 [2] was found to be 110 ± 20 µM.

The values above are taken from PMC9076611, “Ataluren binds to multiple protein synthesis apparatus sites and competitively inhibits release factor-dependent termination” (Nature Communications, 2022).
